Data taken from patent publication US5728686A, “Alkylxanthine phosphonates and alkylxanthine phosphine oxides and their use as pharmaceuticals” (Hoechst Aktiengesellschaft, priority 1996, dated 1998).
Values after ≈ are worked out from the molar mass of the structure shown.

Key:
[1] = system: isolated guinea pig lung strips, leukotriene D4 (LTD4); experiment: antagonist of LTD4-induced contraction of isolated guinea pig lung strips; format: cell-based; details: Cavia porcellus, read-out: Anticontractile action (lung), LTD4: concentration range corresponding to the IC50 value
Source text: (§1) 4. Activity as an antagonist of the contraction of isolated guinea pig lung strips
(§2) The test carried out is based on the same principle as the test indicated in the pharmacological test 3; however, lung strips are used here.
(§3) Preparation of the organ sections and experimental procedure:
(§4) The guinea pig is sacrificed under laughing gas anaesthesia. The entire pulmonary tract is exposed starting from the trachea. The lobes of the lung are cut in a circular fashion such that 3 mm wide strips are formed. The strips of the upper lobes are divided in order to obtain a total of six approximately equal size strips. The strips are suspended in the organ baths under a preload of 4 g. The nutrient solutions used are modified Krebs Henseleit solutions. When using "Platelet activating factor" (PAF) as an […], the composition of this solution corresponds to that for the agonist SP in "Test 3"; for the agonist LTD4 a Krebs Henseleit solution as in the case of the agonist KCl (Test 3) is used. 95% by volume O2, 5% by volume CO2 is used for bubbling through the bath; the bath temperature is 37° C. The experimental procedure is carried out in a therapeutically cumulative methodology, using the dosage graduations 1, 3, 6 and 10 μg/ml.
(§5) The experimental animals, organ bath, vehicles and manner of administration correspond to that stated in pharmacological test 3.
(§6) All numerical values are indicated in the unit μg/ml and relate to the concentration range of tested compound of the formula I (see example numbers in Table 1) which is necessary in order to cause a contraction which corresponds to the IC50 value.

[2] = system: isolated guinea pig trachea, agonist substance P; experiment: antagonist of substance P-induced contraction of isolated guinea pig trachea; format: cell-based; details: Cavia porcellus, individual doses, 37° C., read-out: Anticontractile action (trachea), SP antagonism: concentration range for dilatation corresponding to ED50 range
Source text: 3. Activity as antagonist of the contraction of isolated guinea pig trachea
The compounds of the formula I are used as antagonists of the contraction of isolated guinea pig trachea. The agonists employed were PGF2α (Upjohn, Germany), calcium ionophore A23187 (Calbiochem, Bad Soden, Germany), and substance P (American Peptide Comp., USA):
The antagonism is possible on the one hand due to specific receptor antagonists, and on the other hand also due to inhibition of the subsequent signal pathway. Preparations which directly or indirectly increase the intracellular concentration of cyclic nucleotides in particular show spasmolytic properties here.
as §3
The guinea pig is sacrificed by means of terminal laughing gas anaesthesia. The trachea is exposed along its entire length and cut into 15 individual cartilage rings. 5 rings in each case are tied together to give a chain and fixed in the organ bath under a preload of 3 g. After an equilibration time of 45 minutes, a contraction is produced using the agonist. The antagonist (test preparation) is added cumulatively on the plateau of the maximum. Evaluation is carried out in % force change relative to the contraction maximum. The experimental procedure is carried out at 37° C.; the physiological nutrient solution used is a modified Krebs-Henseleit solution through which is bubbled 95% by volume of O2, 5% by volume of CO2.
Experimental animals: albino guinea pigs (Hattersheim Animal Breeding Institute, Kastengrund, Germany), weight: 200 to 300 g, sex male or female.
Vehicle: double-distilled water, ethanol or isopropanol; administration: into the organ bath number of administration: cumulative, in SP individual doses
All numerical values are indicated in the unit μg/ml and relate to the concentration range of the tested compound of the formula I according to the invention (see example numbers in Table 1) which is necessary in order to cause a dilatation which corresponds to the ED50 range.

[3] = system: muscle group (gastrocnemius, plantaris and soleus) of the immobilized right rear extremity; experiment: rat muscle function test: direct electrical stimulation of muscle group after 3 weeks' immobilization; format: in vivo, male Wistar rats; details: oral, 1x per day for 3 weeks, as a rule 25 mg/kg, ≤-12% classified as active; for Force (force under the contraction curve, right/left difference): isometric stimulation, control difference approx. 25%; for Work (performed work, right/left difference): isotonic stimulation, control approx. -25%
Source text: (§7) 1. Activity in the rat muscle function test
(§8) Male Wistar rats (body weight about 300 g) were kept under standard conditions with feed and water ad libitum. The right rear extremity was immobilized by fitting a kind of "shoe" to the animals under short-term anaesthesia. Two ergonomically fitted halves of the "shoe" were cast from a liquid plastic material which is also used for the production of dental prostheses, these were put onto the animal under brief anaesthesia and joined with the aid of a wire. The material is light but hard, so that the animals cannot gnaw the material, and the "shoe" can be opened at any time to examine the condition of the immobilized extremity. The two halves were moreover padded out with chamois leather in order to avoid compressions and possible injuries due to rubbing. The system also has the advantage that the angle of immobilization is standardized in all animals; this would not be possible with a plaster cast. The chosen angle allows the animals to take up a normal sitting position despite the "shoe" and also to carry the body weight using this extremity. Only complete stretching or bending of the leg is impossible.
(§9) After 3 weeks' immobilization of the right rear extremity and simultaneous oral administration of test preparations (1× per day using a stomach tube; as a rule 25 mg/kg of body weight, in carboxymethylcellulose, the animals were weighed and anaesthetized with pentobarbital (35 mg/kg i.p.). Functional parameters were measured during direct electrical stimulation of a muscle group (gastrocnemius, plantaris and soleus). This muscle group, merely called "muscle" in the following, was exposed at the ankle tendon and tied to a force transducer via the tendon.
To determine the contractile force, the muscles were stimulated isometrically, i.e. a preload of 0.5N was applied and the muscle was stimulated by means of a series of electrical pulses, which led to a maximum contraction, every 0.7 sec for 80 msec for a period of 15 min. […] The area under this contraction curve was evaluated and the difference in percent between the right atrophic and left normal muscle compared (force under the contraction curve as difference in percent (Δ%)). The difference in the control group is approximately 25%.
An isotonic muscle stimulation was used to determine the performed work of the muscle over time. In this type of measurement, the shortening of the muscle during contraction is used as a basis. To this end, a preload which corresponds to the body weight was applied to the muscles. A series of stimulation pulses (80 msec) were triggered every 3 sec and the muscle was stimulated for 15 min. The data (contraction force and distance travelled) were converted to the work performed in the unit J using an automated system. The difference in the work performed between the immobilized atrophic and the normal muscle in the control animals was approximately -25%.
Values which are positive indicate that the functional parameters of the immobilized muscle were better than those of the contralateral normal muscle.

[4] = system: soleus muscle; experiment: rat muscle function test: muscle weight (atrophy of immobilized extremity); format: in vivo, male Wistar rats; details: oral, 1x per day for 3 weeks, as a rule 25 mg/kg, difference ≤25% classified as an effect
Source text: as §7, §8
In spite of this, a significant decrease in the skeletal muscle mass (atrophy) of the immobilized extremity occurred, to be precise up to -35% in comparison with the contralateral nonimmobilized rear extremity. As the soleus muscle was the most severely affected, the changes in muscle weight after administration of preparation shown in Table 1 relate to this muscle. A difference of ≤25% between the right immobilized and left non-immobilized rear extremity was classified as an effect.
as §9

[5] = system: isolated guinea pig lung strips, Platelet activating factor (PAF); experiment: antagonist of PAF-induced contraction of isolated guinea pig lung strips; format: cell-based; details: Cavia porcellus, read-out: Anticontractile action (lung), PAF: concentration range corresponding to the IC50 value
Source text: as §1, §2, §3, §4, §5, §6

[6] = system: phosphodiesterase III; experiment: inhibition of phosphodiesterase III activity; format: biochemical; details: at 100 μM
Experimental: 5. Inhibition of phosphodiesterase III activity
The test is carried out using phosphodiesterase from Boehringer Mannheim (Mannheim, Germany), Order No. 108 243 according to the method of T. SAEKI, I. SAITO, Biochem. Pharm. 46, No. 5, […], pages 833-839.
All numerical values are indicated in % inhibition of the enzyme activity at 100 μM of the corresponding compound of the formula I.

SMILES | IC50 [1] [µg/mL] | EC50 [2] [µg/mL] | Force (force under the contraction curve, right/left difference) [3] | Work (performed work, right/left difference) [3] | Muscle weight (right/left difference) [4] | IC50 [5] [µg/mL] | PDE III Inhibition [6] [%]
CCCn1c(=O)c2c(ncn2CCCP(=O)(OCC)OCC)n(CCC)c1=O [Example 9, Diethyl [3-(1,3-dipropylxanthin-7-yl)propyl]phosphonate] | 3 to 6 (≈ 7.24 to 14.5 µM) | 10 to 30 (≈ 24.1 to 72.4 µM) | – | – | – | – | –
CCOP(=O)(CCCCn1cnc2c1c(=O)n(CCC(C)C)c(=O)n2C)OCC [Example 15, Diethyl [4-(1-(3-methylbutyl)-3-methylxanthin-7-yl)butyl]phosphonate] | – | 30 to 60 (≈ 70 to 140 µM) | +5 Δ % | +2 Δ % | 0 Δ % | – | –
CCCn1cnc2c1c(=O)n(CCCCCP(=O)(OCC)OCC)c(=O)n2C [Example 17, Diethyl [5-(3-methyl-7-propylxanthin-1-yl)-pentyl]phosphonate] | 1 to 3 (≈ 2.41 to 7.24 µM) | 30 to 60 (≈ 72.4 to 145 µM) | +2 Δ % | -10 Δ % | 0 Δ % | 1 to 3 (≈ 2.41 to 7.24 µM) | 77
CCOP(=O)(CCCCCn1c(=O)c2c(ncn2CC)n(C)c1=O)OCC [Example 20, Diethyl 5-(7-ethyl-3-methylxanthin-1-yl)pentylphosphonate] | – | 10 to 30 (≈ 25 to 74.9 µM) | – | – | – | – | 65
CCCn1cnc2c1c(=O)n(CCCCP(=O)(OCC)OCC)c(=O)n2C [Example 32, Diethyl [4-(3-methyl-7-propyl-xanthin-1-yl)butyl]phosphonate] | 6 to 10 (≈ 15 to 25 µM) | 10 to 30 (≈ 25 to 74.9 µM) | -9 Δ % | -1 Δ % | 0 Δ % | 6 to 10 (≈ 15 to 25 µM) | 65
CCOP(=O)(CCCn1c(=O)c2c(ncn2C)n(C)c1=O)OCC [Example 33, Diethyl [3-(3,7-dimethylxanthin-1-yl)propyl]phosphonate] | – | 10 to 30 (≈ 27.9 to 83.7 µM) | -7 Δ % | -10 Δ % | -16 Δ % | 3 to 6 (≈ 8.37 to 16.7 µM) | –
CCOP(=O)(CCCCCn1c(=O)c2c(ncn2Cc2ccccc2)n(C)c1=O)OCC [Example 43, Diethyl [5-(7-benzyl-3-methylxanthin-1-yl)pentyl]phosphonate] | 1 to 6 (≈ 2.16 to 13 µM) | – | – | – | – | 1 to 3 (≈ 2.16 to 6.49 µM) | 52
CCOP(=O)(CCCn1c(=O)c2c(ncn2CC2CC2)n(C)c1=O)OCC [Example 46, Diethyl [3-(7-cyclopropylmethyl-3-methylxanthin-1-yl)propyl]phosphonate] | – | – | +1 Δ % | +9 Δ % | -17 Δ % | – | 67
CCOP(=O)(CCCn1c(=O)c2c(ncn2C(C)C)n(C)c1=O)OCC [Example 47] | – | 10 to 30 (≈ 25.9 to 77.6 µM) | – | -6 Δ % | 0 Δ % | – | 64
CCCCn1cnc2c1c(=O)n(CCCCCP(=O)(OCC)OCC)c(=O)n2C [Example 48, Diethyl [5-(7-butyl-3-methylxanthin-1-yl)pentyl]phosphonate] | – | – | -3 Δ % | -7 Δ % | 0 Δ % | – | 52
CCOP(=O)(CCCCCn1c(=O)c2c(ncn2CC2CC2)n(C)c1=O)OCC [Example 49, Diethyl [5-(7-cyclopropylmethyl-3-methylxanthin-1-yl)pentyl]phosphonate] | 3 to 6 (≈ 7.03 to 14.1 µM) | – | -5 Δ % | -5 Δ % | -25 Δ % | – | 57
CCCn1cnc2c1c(=O)n(CCCP(=O)(OCC)OCC)c(=O)n2C [Example 55, Diethyl [3-(3-methyl-7-propylxanthin-1-yl)propyl]phosphonate] | – | – | – | – | – | 1 to 3 (≈ 2.59 to 7.76 µM) | 59
CCCn1cnc2c1c(=O)n(CCCCCP(=O)(OCC)OCC)c(=O)n2CC [Example 57, Diethyl [5-(3-ethyl-7-propylxanthin-1-yl)pentyl]phosphonate] | – | – | -5 Δ % | -8 Δ % | -17 Δ % | – | 70
